Laboratory results as given in patent US11406721B2, “Compositions and methods for imaging cell populations” (The Regents of the University of California, priority 2016, dated 2022).

Key:
Type in all cases: physicochemical
[1] = Small fluorinated diketones: relaxation enhancement and stability under EDTA competition and cell labeling; conditions: metalated small fluorinated diketones
From the text: It may be necessary for sufficient stability to use fluorinated diketones with heavily fluorinated substituents that are well-miscible with other fluorinated agents known in the art to be useful for ^19F MRI.

[2] = Kinetic measurements of metal uptake into emulsion (UV-Vis); conditions: emulsion from example 4
Description: FIG. 15. Time course of metalation of FETRIS nanoemulsion with Fe^3+. Shown is the metalation of emulsion B (70 μM pAn-FDK and 10 μM Fe^3+, 8 mM HCl, pH 2.1). A single exponential fit yields kobs=0.69±0.10 min^−1
Strong absorbance of aromatic diketone and its complexes permits facile kinetic investigation of metalation rates. In atypical measurement, emulsion from example 4 was diluted to 70 uM diketone (excess ligand, modeling radiolabeling conditions) into a solution of chosen pH and treated with 10 uM metal cations of relevance to medical imaging, including Fe^3+ (MRI), Cu^2+ (PET), Ga^3+ (PET, SPECT), Sc^3+ (PET), and In^3+ (SPECT). In all cases, UV-Vis spectral changes indicative of metal uptake into the fluorous phase were detected, proportional in magnitude to the amount of metal. For some metals, kinetic analysis was performed. The reaction time course fit well to a pseudo-first-order process with rate constant kobs (Table 4).

[3] = 19F relaxometry of organic solutions containing paramagnetic dpm complexes; conditions: 50 mM complexes in 1:1 v/v PhCF3:acetone-d6, 9.4 T
Description: FIG. 10. ^19F relaxometry of organic solutions containing paramagnetic complexes. Relaxation rates of the CF3 group were measured in the presence of 50 mM tris-(dipivaloylmethanato) complexes Fe(dpm)3 (left) and Gd(dpm)3 (right) in 1:1 v/v PhCF3:acetone-d6 at 9.4 T in a sealed 5 mm NMR tubes. […] Solid lines are guide for the eye. While monomeric Fe(dpm)3 was highly soluble in PhCF3 alone, polymeric Gd(dpm)3 dissolved only in the presence of Lewis basic solvent acetone-d6. […] The observed ratio between R1(Gd) and R1(Fe) was 1.72-1.77, consistent with the expected 1.8-fold difference due to the S(S+1) term in Eq. S, curtailed by a slight increase in the distance of minimal approach due to the larger size of Gd.
To highlight the critical effect of viscosity on relaxation rates, we measured PRE caused by different metal ions in non-viscous organic solutions containing trifluorotoluene (PhCF3) and iron or gadolinium chelates of dipivaloylmethane, Fe(dpm)3 and Gd(dpm)3. Under these conditions, gadolinium provided higher R1 than iron, as expected from the greater spin of Gd^3+. […] In contrast, the divergent temperature dependence of R1 and R2 in FETRIS nanoemulsion (FIG. 3D) is indicative of slow molecular motion in the fluorous phase.

[4] = 19F relaxometry of PFPE nanoemulsion doped with H-fod and metal chloride; conditions: 9.4 T
From the text: FIG. 1. Comparison of iron and gadolinium diketonates (H-fod) as ^19F relaxation agents for PFPE. […] R1 and R2 values are reported for the main PFPE peak at −91.4 ppm.
FIG. 11. ^19F relaxometry of PFPE with metalated small diketones. PFPE nanoemulsion was doped in the fluorous phase with small fluorinated diketones H-fod and H-hfp. […] The left panels display broad ^19F NMR signals of CF2 groups of H-fod and H-hfp observed in the absence of metals indicating poor solubility of the ligands in the fluorous phase. […] The right panel show the time course of metalation of PFPE+H-fod nanoemulsion measured by ^19F relaxometry. R1 and R2 were measured for main PFPE peak at −91 ppm at different time points. The solid lines are guides for the eye. The appearance of orange color of Fe(fod)3 correlated with an increase in relaxation rates. Metalation of PFPE emulsions doped with H-fod with Fe^3+ was several orders of magnitude slower than metalation of emulsions containing pAn-FDK (FIG. 15).
Initially, the results of the PRE modeling [Example 2 and FIG. 9] using small molecules were tested. Fluorinated β-diketone H-fod (FIG. 1) was chosen as starting point. […] Addition of 0.7 mM FeCl3 led to the slow formation of orange-colored Fe(fod)3 and a commensurate increase in R1 from 2.3 to 27.0 s^−1 and in R2 from 4.0 to 85.6 s^−1 (at 9.4 T) of the major PFPE resonance (−91.4 ppm) by 24 hours (FIG. 11). With GdCl3, lower R1 (12.8 s^−1) and higher R2 (285 s^−1) values were obtained.

[5] = final [M^3+] 10 uM, [ligand] 70 uM, pH 2.1 (8 mM HCl)

O=C(/C=C(\O)c1ccccc1)C(F)F [H-bda]
enhancing relaxation [1]: highly effective | stability under the conditions of EDTA competition and cell labeling [1]: not stable enough

[Cl][Ga]([Cl])[Cl] [GaCl3]
kobs [2, 5]: 0.043 min⁻¹

C/C(O)=C/C(=O)C(F)(F)C(F)(F)C(F)(F)F [H-hhd]
enhancing relaxation [1]: highly effective | stability under the conditions of EDTA competition and cell labeling [1]: not stable enough

C/C(O)=C/C(=O)C(F)(F)C(F)(F)C(F)(F)C(F)(F)C(F)(F)C(F)(F)F [H-tdd]
enhancing relaxation [1]: highly effective | stability under the conditions of EDTA competition and cell labeling [1]: not stable enough

CC(C)(C)C(=O)C=C(O)C(C)(C)C.CC(C)(C)C(=O)C=C(O)C(C)(C)C.CC(C)(C)C(=O)C=C(O)C(C)(C)C.[Gd] [Gd(dpm)3]
ratio between R1(Gd) and R1(Fe) [3]: 1.72-1.77

O=C(CC(=O)C(F)(F)F)c1cccs1 [H-tta]
enhancing relaxation [1]: highly effective | stability under the conditions of EDTA competition and cell labeling [1]: not stable enough

[Cl-].[Cl-].[Cl-].[In+3] [InCl3]
kobs ([2]; final [M^3+] 2 uM, [ligand] 14 uM, pH ~5 (unbuffered H2O)): >10 min⁻¹ | kobs ([2]; final [M^3+] 10 uM, [ligand] 70 uM, pH 7.4 HEPES): 0.0322 min⁻¹

O=C(CC(=O)C(F)(F)F)c1ccccc1 [H-bta]
enhancing relaxation [1]: highly effective | stability under the conditions of EDTA competition and cell labeling [1]: not stable enough

CC(C)(C)/C(O)=C/C(=O)C(F)(F)C(F)(F)C(F)(F)F [H-fod]
enhancing relaxation [1]: highly effective | stability under the conditions of EDTA competition and cell labeling [1]: not stable enough | R1 of major PFPE resonance (−91.4 ppm) ([4]; PFPE nanoemulsion + 2.8 mM H-fod + 0.7 mM FeCl3, by 24 hours): 27.0 s⁻¹ | R1 of major PFPE resonance ([4]; PFPE nanoemulsion + 2.8 mM H-fod with GdCl3): 12.8 s⁻¹ | R1 of major PFPE resonance (−91.4 ppm) ([4]; PFPE nanoemulsion + 2.8 mM H-fod, before metal addition): 2.3 s⁻¹

[Cl][Fe]([Cl])[Cl] [FeCl3]
kobs ([2]; final [M^3+] 5 uM, [ligand] 70 uM, pH 2.1 (8 mM HCl)): 0.79 min⁻¹ | kobs [2, 5]: 0.70 min⁻¹
